Data from ChEMBL document CHEMBL5584353, “Design, Synthesis, and Biological Evaluation of Potent EZH2/LSD1 Dual Inhibitors for Prostate Cancer” (J Med Chem, 2024).
The source made the active and inactive calls. The calls are words filed in the database; no cut-off is given here.

Test system: LNCaP
Assay: Synergistic growth inhibition of human LNCaP cells incubated for 6 to 7 days in presence of TCP by MTS assay
Assay type: functional
Conditions: time 6-7 day

GI50 [µM]	Compound
13	CCN(c1cc(-c2ccc(CN3CCOCC3)cc2)cc(C(=O)NCc2c(C)cc(C)[nH]c2=O)c1C)C1CCOCC1 [TAZEMETOSTAT]

Test system: PC-3
Assay: Growth inhibition of human PC-3 cells incubated for 6 to 7 days by MTS assay
Assay type: functional
Conditions: time 6-7 day

GI50 [µM]	Compound
> 30	CCN(c1cc(-c2ccc([C@@H]3C[C@H]3N(CC(=O)N3CCN(C(=O)OC(C)(C)C)CC3)C(=O)OC(C)(C)C)cc2)cc(C(=O)NCc2c(C)cc(C)[nH]c2=O)c1C)C1CCOCC1 (racemic)
9.23	CCN(c1cc(-c2ccc([C@@H]3C[C@H]3NCC3CCOCC3)cc2)cc(C(=O)NCc2c(C)cc(C)[nH]c2=O)c1C)C1CCOCC1 (racemic)
2.45	CCN(c1cc(-c2ccc([C@@H]3C[C@H]3NC(=O)OC(C)(C)C)cc2)cc(C(=O)NCc2c(C)cc(C)[nH]c2=O)c1C)C1CCOCC1 (racemic)
> 30	CCN(c1cc(-c2ccc([C@@H]3C[C@H]3N(Cc3ccccc3OC)C(=O)OC(C)(C)C)cc2)cc(C(=O)NCc2c(C)cc(C)[nH]c2=O)c1C)C1CCOCC1 (racemic)
5.08	CCN(c1cc(-c2ccc([C@@H]3C[C@H]3NC(=O)OC(C)(C)C)cc2)cc(C(=O)NCc2c(C)c(Br)c(C)[nH]c2=O)c1C)C1CCOCC1 (racemic)
> 30	CCN(c1cc(-c2ccc(CN3CCOCC3)cc2)cc(C(=O)NCc2c(C)cc(C)[nH]c2=O)c1C)C1CCOCC1 [TAZEMETOSTAT]

Compound	GI50 [µM]
NC1CCC(N[C@@H]2C[C@H]2c2ccccc2)CC1 (stereo partly drawn)	> 30

Test system: PC-3
Assay: Synergistic growth inhibition of human PC-3 cells incubated for 6 to 7 days in presence of ORY1001 by MTS assay
Assay type: functional
Conditions: time 6-7 day

GI50 [µM]	Compound
> 30	CCN(c1cc(-c2ccc(CN3CCOCC3)cc2)cc(C(=O)NCc2c(C)cc(C)[nH]c2=O)c1C)C1CCOCC1 [TAZEMETOSTAT]

Test system: not listed separately
Assay: Inhibition of LSD2 (unknown origin)
Parameters: species or system Homo sapiens
Conditions: not given

Compound	IC50 [µM]
NC1CCC(N[C@@H]2C[C@H]2c2ccccc2)CC1 (stereo partly drawn)	24.5
CCN(c1cc(-c2ccc([C@@H]3C[C@H]3NCC3CCOCC3)cc2)cc(C(=O)NCc2c(C)cc(C)[nH]c2=O)c1C)C1CCOCC1 (racemic)	43.7

Test system: CWR22R
Assay: Synergistic growth inhibition of human 22Rv1 cells incubated for 6 to 7 days in presence of ORY1001 by MTS assay
Assay type: functional
Conditions: time 6-7 day

Compound	GI50 [µM]
CCN(c1cc(-c2ccc(CN3CCOCC3)cc2)cc(C(=O)NCc2c(C)cc(C)[nH]c2=O)c1C)C1CCOCC1 [TAZEMETOSTAT]	> 30

Target: T1, Lysine-specific histone demethylase 1A (Homo sapiens, UniProt O60341)
Assay: Inhibition of LSD1 in human LNCaP cells assessed as upregulation of H3K9me2 expression at 10 uM incubated for 24 hrs by Western blotting analysis
Assay type: cell-based
Conditions: not given

inhibition	Compound
Active	CCN(c1cc(-c2ccc([C@@H]3C[C@H]3NC(=O)OC(C)(C)C)cc2)cc(C(=O)NCc2c(C)c(Br)c(C)[nH]c2=O)c1C)C1CCOCC1 (racemic)

Target: Histone-lysine N-methyltransferase EZH2 (Homo sapiens) (UniProt Q15910)
Sequence (Q15910 whole entry, looked up): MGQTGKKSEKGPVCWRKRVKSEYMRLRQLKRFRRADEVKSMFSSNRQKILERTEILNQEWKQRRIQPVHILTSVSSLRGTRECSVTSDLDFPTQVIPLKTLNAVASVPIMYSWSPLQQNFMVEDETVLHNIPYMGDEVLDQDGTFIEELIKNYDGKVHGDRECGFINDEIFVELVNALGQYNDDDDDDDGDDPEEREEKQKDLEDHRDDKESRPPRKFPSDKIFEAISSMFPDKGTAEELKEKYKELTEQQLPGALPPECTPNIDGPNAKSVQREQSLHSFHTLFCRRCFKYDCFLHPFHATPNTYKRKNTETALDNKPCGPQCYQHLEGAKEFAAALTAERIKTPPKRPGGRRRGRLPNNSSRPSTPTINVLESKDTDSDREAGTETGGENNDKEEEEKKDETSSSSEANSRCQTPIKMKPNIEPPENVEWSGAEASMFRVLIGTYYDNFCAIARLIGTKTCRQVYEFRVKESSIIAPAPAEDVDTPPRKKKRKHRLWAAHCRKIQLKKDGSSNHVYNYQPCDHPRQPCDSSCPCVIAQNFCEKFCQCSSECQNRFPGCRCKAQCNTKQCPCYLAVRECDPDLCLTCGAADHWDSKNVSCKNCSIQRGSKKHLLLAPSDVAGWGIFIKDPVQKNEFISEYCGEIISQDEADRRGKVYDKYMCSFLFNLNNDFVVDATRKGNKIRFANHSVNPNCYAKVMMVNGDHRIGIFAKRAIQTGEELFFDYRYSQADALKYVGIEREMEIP
Assay: Inhibition of EZH2 in human LNCaP cells assessed as downregulation of H3K27me3 expression at 10 uM incubated for 24 hrs by Western blotting analysis
Assay type: cell-based
Conditions: not given

inhibition	Compound
inactive	CCN(c1cc(-c2ccc([C@@H]3C[C@H]3NC(=O)OC(C)(C)C)cc2)cc(C(=O)NCc2c(C)c(Br)c(C)[nH]c2=O)c1C)C1CCOCC1 (racemic)

Test system: LNCaP
Assay: Growth inhibition of human LNCaP cells incubated for 6 to 7 days by MTS assay
Assay type: functional
Conditions: time 6-7 day

GI50 [µM]	Compound
6.49	CCN(c1cc(-c2ccc([C@@H]3C[C@H]3N(CC(=O)N3CCN(C(=O)OC(C)(C)C)CC3)C(=O)OC(C)(C)C)cc2)cc(C(=O)NCc2c(C)cc(C)[nH]c2=O)c1C)C1CCOCC1 (racemic)
2.64	CCN(c1cc(-c2ccc([C@@H]3C[C@H]3NCC3CCOCC3)cc2)cc(C(=O)NCc2c(C)cc(C)[nH]c2=O)c1C)C1CCOCC1 (racemic)
3.62	CCN(c1cc(-c2ccc([C@@H]3C[C@H]3NC(=O)OC(C)(C)C)cc2)cc(C(=O)NCc2c(C)cc(C)[nH]c2=O)c1C)C1CCOCC1 (racemic)
16.9	CCN(c1cc(-c2ccc([C@@H]3C[C@H]3N(Cc3ccccc3OC)C(=O)OC(C)(C)C)cc2)cc(C(=O)NCc2c(C)cc(C)[nH]c2=O)c1C)C1CCOCC1 (racemic)
24.1	CCN(c1cc(-c2ccc([C@@H]3C[C@H]3NC(=O)OC(C)(C)C)cc2)cc(C(=O)NCc2c(C)c(Br)c(C)[nH]c2=O)c1C)C1CCOCC1 (racemic)
19.5	CCN(c1cc(-c2ccc(CN3CCOCC3)cc2)cc(C(=O)NCc2c(C)cc(C)[nH]c2=O)c1C)C1CCOCC1 [TAZEMETOSTAT]

Compound	GI50 [µM]
NC1CCC(N[C@@H]2C[C@H]2c2ccccc2)CC1 (stereo partly drawn)	> 30

Test system: CWR22R
Assay: Growth inhibition of human 22Rv1 cells incubated for 6 to 7 days by MTS assay
Assay type: functional
Conditions: time 6-7 day

Compound	GI50 [µM]
NC1CCC(N[C@@H]2C[C@H]2c2ccccc2)CC1 (stereo partly drawn)	> 30
CCN(c1cc(-c2ccc([C@@H]3C[C@H]3N(CC(=O)N3CCN(C(=O)OC(C)(C)C)CC3)C(=O)OC(C)(C)C)cc2)cc(C(=O)NCc2c(C)cc(C)[nH]c2=O)c1C)C1CCOCC1 (racemic)	13.1
CCN(c1cc(-c2ccc([C@@H]3C[C@H]3NCC3CCOCC3)cc2)cc(C(=O)NCc2c(C)cc(C)[nH]c2=O)c1C)C1CCOCC1 (racemic)	4.03
CCN(c1cc(-c2ccc([C@@H]3C[C@H]3NC(=O)OC(C)(C)C)cc2)cc(C(=O)NCc2c(C)cc(C)[nH]c2=O)c1C)C1CCOCC1 (racemic)	5.12
CCN(c1cc(-c2ccc([C@@H]3C[C@H]3N(Cc3ccccc3OC)C(=O)OC(C)(C)C)cc2)cc(C(=O)NCc2c(C)cc(C)[nH]c2=O)c1C)C1CCOCC1 (racemic)	16.7
CCN(c1cc(-c2ccc([C@@H]3C[C@H]3NC(=O)OC(C)(C)C)cc2)cc(C(=O)NCc2c(C)c(Br)c(C)[nH]c2=O)c1C)C1CCOCC1 (racemic)	> 30
CCN(c1cc(-c2ccc(CN3CCOCC3)cc2)cc(C(=O)NCc2c(C)cc(C)[nH]c2=O)c1C)C1CCOCC1 [TAZEMETOSTAT]	51.9

Target: Histone-lysine N-methyltransferase EZH2 (Homo sapiens) (UniProt Q15910)
Assay: Inhibition of EZH2 in human 22Rv1 cells assessed as downregulation of H3K27me3 expression at 10 uM incubated for 24 hrs by Western blotting analysis
Assay type: cell-based
Conditions: not given

inhibition	Compound
inactive	CCN(c1cc(-c2ccc([C@@H]3C[C@H]3NC(=O)OC(C)(C)C)cc2)cc(C(=O)NCc2c(C)c(Br)c(C)[nH]c2=O)c1C)C1CCOCC1 (racemic)

Test system: PC-3
Assay: Synergistic growth inhibition of human PC-3 cells incubated for 6 to 7 days in presence of TCP by MTS assay
Assay type: functional
Conditions: time 6-7 day

GI50 [µM]	Compound
> 30	CCN(c1cc(-c2ccc(CN3CCOCC3)cc2)cc(C(=O)NCc2c(C)cc(C)[nH]c2=O)c1C)C1CCOCC1 [TAZEMETOSTAT]

Target: T2, Amine oxidase [flavin-containing] A (Homo sapiens, UniProt P21397)
T2 sequence (P21397 whole entry): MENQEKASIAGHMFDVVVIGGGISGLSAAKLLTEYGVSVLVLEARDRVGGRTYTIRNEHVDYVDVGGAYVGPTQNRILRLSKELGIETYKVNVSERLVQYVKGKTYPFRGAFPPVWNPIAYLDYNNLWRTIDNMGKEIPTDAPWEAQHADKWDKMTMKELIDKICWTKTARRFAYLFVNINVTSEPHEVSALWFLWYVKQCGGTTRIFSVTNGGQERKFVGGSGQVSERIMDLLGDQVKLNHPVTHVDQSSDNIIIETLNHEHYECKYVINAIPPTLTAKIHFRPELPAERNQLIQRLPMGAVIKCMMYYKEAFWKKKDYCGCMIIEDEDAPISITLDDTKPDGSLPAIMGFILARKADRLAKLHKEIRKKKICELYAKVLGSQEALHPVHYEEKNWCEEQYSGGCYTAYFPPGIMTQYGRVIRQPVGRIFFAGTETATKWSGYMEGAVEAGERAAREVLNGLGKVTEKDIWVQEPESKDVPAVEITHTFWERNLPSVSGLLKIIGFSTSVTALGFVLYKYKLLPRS
Assay: Inhibition of MAO-A (unknown origin)
Conditions: not given

Compound	IC50 [µM]
NC1CCC(N[C@@H]2C[C@H]2c2ccccc2)CC1 (stereo partly drawn)	0.51
CCN(c1cc(-c2ccc([C@@H]3C[C@H]3NCC3CCOCC3)cc2)cc(C(=O)NCc2c(C)cc(C)[nH]c2=O)c1C)C1CCOCC1 (racemic)	2.05

Test system: LNCaP
Assay: Synergistic growth inhibition of human LNCaP cells incubated for 6 to 7 days in presence of ORY1001 by MTS assay
Assay type: functional
Conditions: time 6-7 day

GI50 [µM]	Compound
12	CCN(c1cc(-c2ccc(CN3CCOCC3)cc2)cc(C(=O)NCc2c(C)cc(C)[nH]c2=O)c1C)C1CCOCC1 [TAZEMETOSTAT]

Test system: not listed separately
Assay: Toxicity in BALB/c mouse xenografted with human 22Rv1 cells assessed as change in body weight at 65 mg/kg,ip administrated daily for 31 days in presence of TCP
Assay type: organism-based, CWR22R
Conditions: in vivo, 744 h, time 31 day

Compound	Activity
CCN(c1cc(-c2ccc(CN3CCOCC3)cc2)cc(C(=O)NCc2c(C)cc(C)[nH]c2=O)c1C)C1CCOCC1 [TAZEMETOSTAT]	Non-Toxic

Target: T1, Lysine-specific histone demethylase 1A
Assay: Inhibition of recombinant human LSD1 using Histone H3 as fluorometric substrate incubated for 30 mins by HRP based plate reader assay
Conditions: not given

IC50 [µM]	Compound
> 3	CCN(c1cc(-c2ccc([C@@H]3C[C@H]3N(CC(=O)N3CCN(C(=O)OC(C)(C)C)CC3)C(=O)OC(C)(C)C)cc2)cc(C(=O)NCc2c(C)cc(C)[nH]c2=O)c1C)C1CCOCC1 (racemic)
> 3	CCN(c1cc(-c2ccc([C@@H]3C[C@H]3NC(=O)OC(C)(C)C)cc2)cc(C(=O)NCc2c(C)cc(C)[nH]c2=O)c1C)C1CCOCC1 (racemic)
> 3	CCN(c1cc(-c2ccc([C@@H]3C[C@H]3N(Cc3ccccc3OC)C(=O)OC(C)(C)C)cc2)cc(C(=O)NCc2c(C)cc(C)[nH]c2=O)c1C)C1CCOCC1 (racemic)

Test system: CWR22R
Assay: Synergistic growth inhibition of human 22Rv1 cells incubated for 6 to 7 days in presence of TCP by MTS assay
Assay type: functional
Conditions: time 6-7 day

Compound	GI50 [µM]
CCN(c1cc(-c2ccc(CN3CCOCC3)cc2)cc(C(=O)NCc2c(C)cc(C)[nH]c2=O)c1C)C1CCOCC1 [TAZEMETOSTAT]	> 30

Test system: not listed separately
Assay: Toxicity in BALB/c mouse xenografted with human 22Rv1 cells assessed as change in body weight at 65 mg/kg,ip administrated daily for 31 days
Assay type: organism-based, CWR22R
Conditions: in vivo, 744 h, time 31 day

Compound	Activity
CCN(c1cc(-c2ccc(CN3CCOCC3)cc2)cc(C(=O)NCc2c(C)cc(C)[nH]c2=O)c1C)C1CCOCC1 [TAZEMETOSTAT]	Non-Toxic

Test system: CWR22R
Assay: Induction of apoptosis in human 22Rv1 cells at 10 uM incubated for 5 days by Annexin V-FITC/PI staining based flow cytometric analysis (reference value: 8.97 %)
Assay type: functional
Conditions: time 5 day

Compound	Activity [%]
NC1CCC(N[C@@H]2C[C@H]2c2ccccc2)CC1 (stereo partly drawn)	11.56
CCN(c1cc(-c2ccc(CN3CCOCC3)cc2)cc(C(=O)NCc2c(C)cc(C)[nH]c2=O)c1C)C1CCOCC1 [TAZEMETOSTAT]	17.88

Target: T1, Lysine-specific histone demethylase 1A
Assay: Inhibition of LSD1 in human 22Rv1 cells assessed as upregulation of H3K9me2 expression at 10 uM incubated for 24 hrs by Western blotting analysis
Assay type: cell-based
Conditions: not given

inhibition	Compound
Active	CCN(c1cc(-c2ccc([C@@H]3C[C@H]3NC(=O)OC(C)(C)C)cc2)cc(C(=O)NCc2c(C)c(Br)c(C)[nH]c2=O)c1C)C1CCOCC1 (racemic)

Test system: CWR22R
Assay: Synergistic antitumor activity against human 22Rv1 cells xenografted in BALB/c mouse assessed as tumor growth inhibition at 65 mg/kg,ip administrated daily for 31 days in presence of TCP relative to control
Conditions: 22Rv1, 744 h, read-out: TGI

Compound	inhibition in vivo at 65 mg/kg [%]
CCN(c1cc(-c2ccc(CN3CCOCC3)cc2)cc(C(=O)NCc2c(C)cc(C)[nH]c2=O)c1C)C1CCOCC1 [TAZEMETOSTAT]	28.8
